Experiments:
RAR = settings: Heyman et al. Cell 1992, 68, 397-406; cited from earlier work
ob/ob and db/db mice = settings: Mukherjee et al., Nature 1997; cited from earlier work
RXR/PPAR heterodimers = settings: Mukherjee et al., Nature 1997, 386, 407-410; WO 97/10819; cited from earlier work

CC1=C(/C=C/C(C)=C\C=C\C(C)=C\C(=O)O)C(C)(C)CCC1 [9-cis retinoic acid]
activation of RAR (RAR): activates both RXR and RAR

Cc1cc2c(cc1C1(c3ccc(C(=O)O)cn3)CC1)C(C)(C)CCC2(C)C [LG 100268]
glucose, insulin and triglyceride levels (ob/ob and db/db mice): reduction in glucose, insulin and triglyceride levels | activation of RXR/PPAR heterodimers (RXR/PPAR heterodimers): activate RXR/PPAR heterodimers

Cc1cc2c(cc1C13CC1CCC3=Cc1ccc(C(=O)O)cc1)C(C)(C)CCC2(C)C (stereo not shown) [Example 1, 4-[1-(3,5,5,8,8-Pentamethyl-5,6,7,8-tetrahydro-naphthalen-2-yl)-bicyclo[3.1.0]hex-2-ylidenemethyl]-benzoic Acid]
melting point: 274.5 to 275.2 °C

From US20010034448A1, “New compounds, their preparation and use” (priority 1998, published 2001)
